# Source: paper PMC6858373 (Scientific Reports, 2019)
# Like-named read-outs stand apart in the source and are kept apart here.
# Tests used:
# [1] = molecular target: full-length P. pyralis luciferase (Photinus pyralis, UniProt P08659, K549A/L550V/N119G/N50D/S548I); assay type: cell-based; conditions: CC_NCI screening, normalized to on-plate 0.3% DMSO controls; for Luciferase Assay % Lum: full-length luciferase counter-screen luminescence; for Luciferase Assay Z-score: full-length luciferase counter-screen
# Clone V cells [2] = test: CellTiter Blue (CTB) cell viability counter-screen; conditions: CC_NCI screening, normalized to on-plate 0.3% DMSO controls; for Toxicity Assay % Fluor: CTB cell viability fluorescence
# Clone V cells [3] = conditions: for Toxicity Assay Z-score: human
# [4] = molecular target: T1, FGF14:Nav1.6 C-tail complex (Homo sapiens, UniProt Q92915+Q9UQD0); test: Split-luciferase complementation assay (LCA) in Clone V double stable HEK293 cells; assay type: cell-based; conditions: for Split Luciferase Assay % Lum Set 1 / Split Luciferase Assay Z-score Set 1: biological replicate Set 1; for Split Luciferase Assay % Lum Set 1 / Split Luciferase Assay %Lum Set 2: normalized to on-plate 0.3% DMSO controls (n=16 per plate); for Split Luciferase Assay %Lum Set 2 / Split Luciferase Assay Z-score Set 2: biological replicate Set 2; for Split Luciferase Assay Z-score Set 1 / Split Luciferase Assay Z-score Set 2: normalized to on-plate 0.3% DMSO controls; for Split Luciferase Assay %Lum Avg: average of Set 1 and Set 2, normalized to 0.3% DMSO controls
# T1 construct: polymerase chain reaction (PCR) amplification of the FGF14 open reading frame (nt 1–855); C-terminal fragment of Nav1.6 (amino acids 1763–1976) fused with CD4ΔC-tail (amino acids 1–395); expressed in transfected cells
# [5] = CC_NCI screening, LCA luminescence
# Sequence of full-length P. pyralis luciferase (P08659 whole entry N50D/N119G/S548I/K549A/L550V, looked up): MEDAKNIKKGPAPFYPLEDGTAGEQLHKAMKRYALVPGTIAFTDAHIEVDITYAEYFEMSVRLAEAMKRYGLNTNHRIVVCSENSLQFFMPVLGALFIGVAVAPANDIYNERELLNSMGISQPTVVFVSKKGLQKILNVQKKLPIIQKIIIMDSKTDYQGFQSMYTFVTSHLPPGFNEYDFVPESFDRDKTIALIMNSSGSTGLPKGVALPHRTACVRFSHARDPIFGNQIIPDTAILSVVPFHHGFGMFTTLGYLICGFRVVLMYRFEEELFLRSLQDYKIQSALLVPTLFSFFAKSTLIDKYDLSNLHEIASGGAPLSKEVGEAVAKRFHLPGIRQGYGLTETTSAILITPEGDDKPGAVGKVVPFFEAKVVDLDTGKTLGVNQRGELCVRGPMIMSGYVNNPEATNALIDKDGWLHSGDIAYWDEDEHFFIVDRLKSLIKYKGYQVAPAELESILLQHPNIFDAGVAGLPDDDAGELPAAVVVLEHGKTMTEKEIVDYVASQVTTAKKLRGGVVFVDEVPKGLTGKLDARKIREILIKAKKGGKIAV
# T1 sequence (Q92915 1-252 isoform Q92915-2): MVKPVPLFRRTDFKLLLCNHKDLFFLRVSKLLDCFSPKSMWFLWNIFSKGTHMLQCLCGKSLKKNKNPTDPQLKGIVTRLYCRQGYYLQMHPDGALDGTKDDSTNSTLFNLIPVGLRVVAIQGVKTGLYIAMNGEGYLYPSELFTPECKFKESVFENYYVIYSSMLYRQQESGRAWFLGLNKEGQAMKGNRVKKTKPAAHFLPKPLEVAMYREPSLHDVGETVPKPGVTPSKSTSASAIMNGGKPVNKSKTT
# T1 sequence (Q9UQD0 1763-1976 limits assumed): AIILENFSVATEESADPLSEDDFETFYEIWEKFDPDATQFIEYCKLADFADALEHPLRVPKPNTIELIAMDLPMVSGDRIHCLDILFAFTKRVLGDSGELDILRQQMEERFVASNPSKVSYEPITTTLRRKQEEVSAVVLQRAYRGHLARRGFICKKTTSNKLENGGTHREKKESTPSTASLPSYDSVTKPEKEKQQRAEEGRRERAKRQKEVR
Structure (SMILES),Luciferase Assay % Lum [1],Luciferase Assay Z-score [1],Toxicity Assay % Fluor (Clone V cells [2]),"Toxicity Assay Z-score (Clone V cells [3]; 16 h, 30 µM)","Split Luciferase Assay % Lum Set 1 [4, 5]","Split Luciferase Assay %Lum Set 2 [4, 5]","Split Luciferase Assay Z-score Set 1 ([4]; CC_NCI screening, LCA)","Split Luciferase Assay Z-score Set 2 ([4]; CC_NCI screening, LCA)",Split Luciferase Assay %Lum Avg ([4]; CC_NCI screening),Luciferase Assay % Lum (full-length luciferase counter-screen) [1],Luciferase Assay Z-score (full-length luciferase counter-screen) [1],Toxicity Assay Z-score (CTB cell viability) (Clone V cells [2]),Toxicity Assay % Fluor (CTB cell viability fluorescence) (Clone V cells [3]),Split Luciferase Assay Z-score Set 1 ([4]; CC_NCI screening),Split Luciferase Assay % Lum Set 1 ([4]; CC_NCI screening),Split Luciferase Assay Z-score Set 2 ([4]; CC_NCI screening),Split Luciferase Assay %Lum Set 2 ([4]; CC_NCI screening),Split Luciferase Assay %Lum Avg [4],Toxicity Assay Z-score (Clone V cells [3])
C=CC[C@@H]1/C=C(\C)C[C@H](C)C[C@H](OC)[C@H]2O[C@@](O)(C(=O)C(=O)N3CCCC[C@H]3C(=O)O[C@H](/C(C)=C/[C@@H]3CC[C@@H](O)[C@H](OC)C3)[C@H](C)[C@@H](O)CC1=O)[C@H](C)C[C@@H]2OC [FK-506],77.49%,-2.88,113.03%,1.82,80.77%,91.55%,-1.55,-0.69,86.16%,–,–,–,–,–,–,–,–,–,–
CC(=O)OCCN1C(=O)c2c(C)nc3ccc(S(=O)(=O)N4CCOCC4)cc3c2C1=O [IVACHTIN],–,–,–,–,–,–,–,–,–,102.63%,0.34,1.25,108.95%,0.99,112.30%,-3.23,60.34%,86.32%,–
CS(=O)(=O)CCNCc1ccc(-c2ccc3ncnc(Nc4ccc(OCc5cccc(F)c5)c(Cl)c4)c3c2)o1 [LAPATINIB],87.41%,-1.61,85.57%,-2.02,–,95.71%,–,-0.35,107.26%,–,–,–,–,–,–,–,–,–,–
N#Cc1ccc(C(c2ccc(C#N)cc2)n2cncn2)cc1 [Letrozole],99.90%,-0.01,93.68%,-0.88,99.25%,115.47%,-0.06,1.26,107.36%,–,–,–,–,–,–,–,–,–,–
COC1=CC(c2cc3ccccc3[nH]2)=N/C1=C\c1[nH]c(C)cc1C [OBATOCLAX],78.33%,-2.78,87.39%,-1.76,59.03%,61.38%,-3.31,-3.14,60.20%,–,–,–,–,–,–,–,–,–,–
COC(=O)C[C@](O)(CCCC(C)(C)O)C(=O)O[C@@H]1C(OC)=C[C@]23CCCN2CCc2cc4c(cc2[C@H]13)OCO4 [Omacetaxine mepesuccinate],87.82%,-1.56,93.81%,-0.87,20.98%,19.77%,-6.39,-6.53,20.37%,–,–,–,–,–,–,–,–,–,–
O=C(/C=C/c1cccc(S(=O)(=O)Nc2ccccc2)c1)NO [PXD101],87.87%,-1.55,96.16%,-0.54,105.78%,106.11%,0.47,0.50,105.94%,–,–,–,–,–,–,–,–,–,–
Cc1ccc(C(=O)Nc2ccc(CN3CCN(C)CC3)c(C(F)(F)F)c2)cc1C#Cc1cnc2cccnn12 [Ponatinib],84.93%,-1.93,80.95%,–,53.59%,58.26%,-3.75,-3.40,55.93%,–,–,–,–,–,–,–,–,–,-2.66
